Assay results: US20150105252A1, “SUBSTITUTED PYRAZOLES AS HERBICIDES” (E I DU PONT DE NEMOURS AND COMPANY, priority 2013, published 2015)

Key:
velvetleaf [1] = test: Test A postemergence; format: in vivo, Abutilon theophrasti; details: Postemergence
In short: (§1)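 Growth medium: loam soil blended with sand. Preemergence treatment used a directed soil spray right after planting; postemergence treatment targeted seedlings at one to two leaves (2–10 cm height). Response was judged by eye relative to untreated plants about 10 days later on a 0–100 control scale.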

barnyardgrass [2] = test: Test C postemergence; format: in vivo, Echinochloa crus-galli
In short: (§2)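 Herbicidal effect is expressed as percent visual control (0–100) judged against untreated plants 13 to 15 days after treatment in the greenhouse. Preemergence pots contained seeds in a soil–sand blend; postemergence plants, 2–18 cm tall, grew in peat-based planting medium.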

velvetleaf [3] = test: Test C postemergence; format: in vivo, Abutilon theophrasti; details: postemergence
In short: as §2

pigweed = test: Test C postemergence; format: in vivo, Amaranthus retroflexus; details: postemergence
In short: as §2

corn [4] = test: Test A postemergence; format: in vivo, Zea mays
In short: as §1

oilseed rape = test: Test C postemergence; format: in vivo, Brassica napus; details: postemergence
In short: as §2

corn [5] = test: Test A preemergence; format: in vivo, Zea mays; details: preemergence
In short: as §1

oat, wild = test: Test C postemergence; format: in vivo, Avena fatua
In short: as §2

lambsquarters = test: Test C postemergence; format: in vivo, Chenopodium album
In short: as §2

foxtail, giant = test: Test A preemergence; format: in vivo, Setaria faberii; details: preemergence
In short: as §1

morningglory [6] = test: Test A preemergence; format: in vivo, Ipomoea spp.; details: preemergence
In short: as §1

chickweed = test: Test C postemergence; format: in vivo, Stellaria media
In short: as §2

barnyardgrass [7] = test: Test C preemergence; format: in vivo, Echinochloa crus-galli; details: preemergence
In short: as §2

galium = test: Test C preemergence; format: in vivo, Galium aparine; details: preemergence
In short: as §2

morningglory [8] = test: Test C postemergence; format: in vivo, Ipomoea coccinea
In short: as §2

barnyardgrass [9] = test: Test A postemergence; format: in vivo, Echinochloa crus-galli
In short: as §1

[10] = Postemergence, 31 g ai/ha, visually evaluated after 13 to 15 days
[11] = postemergence, 62 g ai/ha, scale 0 to 100
[12] = postemergence, 250 g ai/ha, scale 0 to 100 (0 no effect, 100 complete control)
[13] = postemergence, 125 g ai/ha, scale 0 to 100, 0 no effect, 100 complete control
[14] = 250 g ai/ha, scale 0 to 100 (0 no effect, 100 complete control)
[15] = 125 g ai/ha, scale 0 to 100, 0 no effect, 100 complete control
[16] = Postemergence, 500 g ai/ha, 0 to 100 scale (0 no effect, 100 complete control)
[17] = postemergence, 125 g ai/ha, about 10 days, visual rating on 0 to 100 scale (0 no effect, 100 complete control)
[18] = 125 g ai/ha, visual injury approx. 10 days after treatment
[19] = 500 g ai/ha, visual injury after approx. 10 days, 0 to 100 scale (0 no effect, 100 complete control)
[20] = 31 g ai/ha, visual rating, scale 0 to 100 (0 no effect, 100 complete control), 13 to 15 days
[21] = 62 g ai/ha, scale 0 to 100 (0 no effect, 100 complete control), 13 to 15 days
[22] = 125 g ai/ha, 13 to 15 days, scale 0 to 100, 0 = no effect, 100 = complete control
[23] = 250 g ai/ha, scale 0 to 100, 0 is no effect, 100 is complete control

## CCCc1cc(C(=O)NC(C)C)nn1Cc1cc(C(F)(F)F)nn1C [Compound 201]
Velvetleaf [1]; 125 g ai/ha, 0 to 100 scale, 0 no effect, 100 complete control
  Velvetleaf plant response rating: 70
Velvetleaf [1]; 500 g ai/ha, 0 to 100 scale (0 no effect, 100 complete control)
  Velvetleaf plant response rating: 100
Barnyardgrass [2]; [10]
  Plant response rating (scale of 0 to 100 where 0 is no effect and 100 is complete control), Barnyardgrass: 5
Barnyardgrass [2]; [11]
  Barnyardgrass plant response rating: 10
Barnyardgrass [2]; [12]
  Plant response rating, Barnyardgrass: 60
Barnyardgrass [2]; [13]
  Plant response rating, Barnyardgrass: 35
Velvetleaf [3]; [14]
  Plant response rating, Velvetleaf: 80
Velvetleaf [3]; scale 0 to 100
  Velvetleaf plant response rating: 60
pigweed; 62 g ai/ha, scale 0 to 100
  Pigweed plant response rating: 65
pigweed; [14]
  Plant response rating, Pigweed: 90
pigweed; [15]
  Plant response rating, Pigweed: 80
Corn [4]; [16]
  Corn plant response rating: 100
Corn [4]; [17]
  Corn plant response rating: 90
Oilseed rape; 62 g ai/ha, scale 0 to 100
  Oilseed Rape plant response rating: 60
Oilseed rape; [14]
  Plant response rating, Oilseed Rape: 80
Oilseed rape; [15]
  Plant response rating, Oilseed Rape: 50
Corn [5]; [18]
  Corn plant response rating (0 to 100 scale): 10
Corn [5]; [19]
  Corn plant response rating: 90
oat, wild; [10]
  Plant response rating (scale of 0 to 100 where 0 is no effect and 100 is complete control), Oat, Wild: 5
oat, wild; [11]
  Oat, Wild plant response rating: 10
oat, wild; [12]
  Plant response rating, Oat, Wild: 40
oat, wild; [13]
  Plant response rating, Oat, Wild: 25
lambsquarters; [10]
  Plant response rating (scale of 0 to 100 where 0 is no effect and 100 is complete control), Lambsquarters: 65
lambsquarters; [11]
  Lambsquarters plant response rating: 80
lambsquarters; [12]
  Plant response rating, Lambsquarters: 95
lambsquarters; [13]
  Plant response rating, Lambsquarters: 90
foxtail, giant; [18]
  Foxtail, Giant plant response rating (0 to 100 scale): 100
foxtail, giant; [19]
  Foxtail, Giant plant response rating: 100
Morningglory [6]; [18]
  Morningglory plant response rating (0 to 100 scale): 100
Morningglory [6]; [19]
  Morningglory plant response rating: 100
chickweed; [10]
  Plant response rating (scale of 0 to 100 where 0 is no effect and 100 is complete control), Chickweed: 75
chickweed; [11]
  Chickweed plant response rating: 80
chickweed; [12]
  Plant response rating, Chickweed: 85
chickweed; [13]
  Plant response rating, Chickweed: 85
Barnyardgrass [7]; [20]
  Barnyardgrass plant response rating: 98
Barnyardgrass [7]; [21]
  Barnyardgrass plant response rating: 100
Barnyardgrass [7]; [22]
  Plant response rating, Barnyardgrass: 100
Barnyardgrass [7]; [23]
  Barnyardgrass plant response rating: 100
galium; [20]
  Galium plant response rating: 95
galium; [21]
  Galium plant response rating: 95
galium; [22]
  Plant response rating, Galium: 98
galium; [23]
  Galium plant response rating: 100
Morningglory [8]; [10]
  Plant response rating (scale of 0 to 100 where 0 is no effect and 100 is complete control), Morningglory: 80
Morningglory [8]; [11]
  Morningglory plant response rating: 95
Morningglory [8]; [12]
  Plant response rating, Morningglory: 98
Morningglory [8]; [13]
  Plant response rating, Morningglory: 85
Barnyardgrass [9]; [16]
  Barnyardgrass plant response rating: 100
Barnyardgrass [9]; [17]
  Barnyardgrass plant response rating: 80
